This data set in a line: ultimate aerobic biodegradability in aqueous medium, OECD method 301 B. The following applies: on the fourteenth day / after 14 days. How it is done:
This test is an evaluation, in aqueous medium, of the ultimate aerobic biodegradability of a sample of the concentrated formulation according to the invention. This test is carried out according to the provisions of OECD method 301 B at the concentration of […] corresponding to an organic carbon content of 10 mg/l. The theoretical amount of carbon dioxide formed (CO2Th) in the “concentrated disinfectant detergent for floors, surfaces and materials at 10 mg/l of DOC” test is equal to 33.0 mg/l.
The physicochemical analysis is carried out according to standard ASTM D5291.
FIG. 1 represents the curves of results of degradation with respect to CO2Th.

The compound `CC(=O)[O-].[Na+]` [sodium acetate] had a percentage degradation of 81%.

Source of the values: patent publication US10111426B2, “Biocidal materials” (priority 2011, dated 2018).
